Test results reported in patent US10440955B2, “Methods comprising a biocidal polyamine” (Curza Global, LLC, priority 2013, dated 2019).
Where a name gives a salt, the structure may show the parent alone.

Tests used:
[1] = system: MRSA biofilms; test: MBEC, MBEC Inoculation Tray (Innovotech), to 10^2 CFU/peg in 24 hours; type: cell-based, Staphylococcus aureus
From the text: To determine the MBEC of each polyamine compound, the MBEC Inoculation Tray by Innovotech, formerly known as the Calgary biofilm device, was used. Within this device, biofilms grow on the surface of polystyrene pegs, 96 of which are attached to a lid. These pegs are inserted into a flat bottom 96-well plate. In this instance, the MBEC of a molecule was defined as the concentration of compound (in μg/mL) required to reduce 10^5 or 10^6 CFU/peg (biofilm levels varied by isolate) to 10^2 CFU/peg in a 24-hour period.
Following the manufacturer's guidelines, biofilms were grown on the surface of each peg by first making a 0.5 McFarland of each isolate. The 0.5 McFarland was diluted 1:100 in CAMHB. Into each well of a flat bottom 96-well plate, 150 μL of broth were pipetted. The plate was shaken at 100 rpm for 24 hours (P. aeruginosa and A. baumannii) or 48 hours (MRSA). The pegs were then placed into a separate flat bottom 96-well plate for 10 seconds with 200 μL of phosphate buffered saline (PBS) in each well to remove nonadherent cells. The lid was then placed into a 96-well plate that contained varying concentrations of antimicrobial with 200 μL per well. The plate was incubated for 24 hours at 37° C. after which time 100 μL of broth were plated on TSA. TSA plates were incubated 24 hours at 37° C. and the number of CFU counted to calculate the CFU/peg. In this instance, the MBEC was defined as the concentration of antimicrobial required to reduce 10^5 or 10^6 CFU/peg to 10^2 CFU/peg in a 24 hour period.
MBEC data were collected using the MBEC Inoculation Tray by Innovotech. The MBEC was defined in these preliminary results as the concentration of antimicrobial required to reduce 10^5 or 10^6 CFU/peg to 10^2 CFU/peg in a 24-hour period.

[2] = system: L-929 cells (ATCC CCL-1); test: Minimal Essential Media (MEM) Elution cytotoxicity test; type: cell-based
In short: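 L-929 cells (ATCC CCL-1) were seeded in multiwell plates and grown to roughly 80% confluence. Test article dilutions (1:2, 1:4, 1:8, 1:16) and control extracts were applied in triplicate and incubated 48±3 hours at 37±1° C. in 5±1% CO2. Wells were scored microscopically for morphological cytotoxicity on a 0–4 scale and averaged; Pass required grade not greater than 2 per USP <87>.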

NCCCNCCCNCc1ccccc1 [CZ-7, benzylnorspermidine]
MBEC μg/mL (μM) MRSA ([1]; Table 4): >500 µg/mL | MBEC μg/mL (μM) MRSA ([1]; Table 4, value in parentheses): (>2,259) μM

NCCCNCCCNCc1cccc(CNCCCNCCCN)c1 [CZ-25, N^1,N^1′-(1,3-phenylenebis(methylene))bis(N3-(3-ammoniopropyl)propane-1,3-diaminium) chloride]
MBEC μg/mL (μM) MRSA ([1]; Table 4): 25 µg/mL | MBEC μg/mL (μM) MRSA ([1]; Table 4, value in parentheses): (69) μM

NCCCNCCCNCc1cc(CNCCCNCCCN)cc(CNCCCNCCCN)c1 [CZ-52, N^1,N^1′,N^1″-(benzene-1,3,5-triyltris(methylene))tris(N^3-(3-aminopropyl)propane-1,3-diamine), hydrochloride salt]
MBEC μg/mL (μM) MRSA ([1]; Table 4): 20 µg/mL | MBEC μg/mL (μM) MRSA ([1]; Table 4, value in parentheses): (40) μM | Results Pass/Fail ([2]; Table 9A, 3.125 μg/mL): Pass (receives a passing score (Pass) if the reactivity grade is not greater than grade 2 or a mild reactivity) | Results Pass/Fail ([2]; Table 9A, 6.25 μg/mL): Fail (a numerical grade greater than 2 is considered a cytotoxic effect, or a failing score (Fail)) | Results Pass/Fail ([2]; Table 9A, 12.5 μg/mL): Fail (a numerical grade greater than 2 is considered a cytotoxic effect, or a failing score (Fail)) | Results Pass/Fail ([2]; Table 9A, 25 μg/mL): Fail (a numerical grade greater than 2 is considered a cytotoxic effect, or a failing score (Fail)) | Results Pass/Fail ([2]; Table 9A, 1.563 (unit not given)): Pass (receives a passing score (Pass) if the reactivity grade is not greater than grade 2 or a mild reactivity)

NCCCNCCCNCc1cc(CNCCCNCCCN)cc(-c2ccccc2)c1 [CZ-58, N^1,N^1′-([1,1′-biphenyl]-3,5-diylbis(methylene))bis(N^3-(3-ammoniopropyl)propane-1,3-diaminium) chloride]
MBEC μg/mL (μM) MRSA ([1]; Table 4): 30 µg/mL | MBEC μg/mL (μM) MRSA ([1]; Table 4, value in parentheses): (68) μM | Results Pass/Fail ([2]; Table 10A, 25 μg/mL): Fail (a numerical grade greater than 2 is considered a cytotoxic effect, or a failing score (Fail)) | Results Pass/Fail ([2]; Table 10A, dilution 1:2 of 25 μg/mL): Fail (a numerical grade greater than 2 is considered a cytotoxic effect, or a failing score (Fail)) | Results Pass/Fail ([2]; Table 10A, dilution 1:4 of 25 μg/mL): Pass (receives a passing score (Pass) if the reactivity grade is not greater than grade 2 or a mild reactivity) | Results Pass/Fail ([2]; Table 10A, dilution 1:8 of 25 μg/mL): Pass (receives a passing score (Pass) if the reactivity grade is not greater than grade 2 or a mild reactivity) | Results Pass/Fail ([2]; Table 10A, dilution 1:16 of 25 μg/mL): Pass (receives a passing score (Pass) if the reactivity grade is not greater than grade 2 or a mild reactivity)

CC(C)CNCCCNCCCNCc1cc(CNCCCNCCCNCC(C)C)cc(-c2ccccc2)c1 [CZ-86, N^1,N^1′-([1,1′-biphenyl]-3,5-diylbis(methylene))bis(N^3-(3-(isobutylamino)propyl)propane-1,3-diamine), hydrochloride salt]
Results Pass/Fail ([2]; Table 8A, 400 μg/mL): Fail (a numerical grade greater than 2 is considered a cytotoxic effect, or a failing score (Fail)) | Results Pass/Fail ([2]; Table 8A, dilution 1:2 of 400 μg/mL): Fail (a numerical grade greater than 2 is considered a cytotoxic effect, or a failing score (Fail)) | Results Pass/Fail ([2]; Table 8A, dilution 1:4 of 400 μg/mL): Fail (a numerical grade greater than 2 is considered a cytotoxic effect, or a failing score (Fail)) | Results Pass/Fail ([2]; Table 8A, dilution 1:8 of 400 μg/mL): Pass (receives a passing score (Pass) if the reactivity grade is not greater than grade 2 or a mild reactivity) | Results Pass/Fail ([2]; Table 8A, dilution 1:16 of 400 μg/mL): Pass (receives a passing score (Pass) if the reactivity grade is not greater than grade 2 or a mild reactivity)

CN[C@H](CC(C)C)C(=O)N[C@H]1C(=O)N[C@@H](CC(N)=O)C(=O)N[C@H]2C(=O)N[C@H]3C(=O)N[C@H](C(=O)N[C@H](C(=O)O)c4cc(O)cc(O)c4-c4cc3ccc4O)[C@H](O)c3ccc(c(Cl)c3)Oc3cc2cc(c3O[C@@H]2O[C@H](CO)[C@@H](O)[C@H](O)[C@H]2O[C@H]2C[C@](C)(N)[C@H](O)[C@H](C)O2)Oc2ccc(cc2Cl)[C@H]1O [vancomycin, reference compound]
MBEC μg/mL (μM) MRSA ([1]; Table 4): >500 µg/mL | MBEC μg/mL (μM) MRSA ([1]; Table 4, value in parentheses): (>345) μM
